Results published in patent US11980618B2, “Nitric oxide releasing phosphodiesterase type 5 inhibitor” (NICOX S.A., priority 2018, dated 2024).

Legend:
[1] = tested on: laser-induced ocular hypertensive non-human primates; test: Intraocular pressure (IOP) lowering effect in laser-induced ocular hypertensive non-human primates (topical dosing, pneumatonometer); format: in vivo
[2] = tested on: ocular normotensive New Zealand white rabbits; test: Intraocular pressure (IOP) lowering effects in ocular normotensive New Zealand white rabbits (topical dosing, pneumatonometer); format: in vivo
[3] = Example 26, 2.0% w/v, 30 μL topical

O=C(O)CCCCCO[N+](=O)[O-] [(IIIa)-OH, 6-(nitrooxy)hexanoic acid]
IOP change (mmHg) E480 ([1]; in vivo): −2.7±1.5 mmHg
IOP change (mmHg) Emax ([1]; in vivo): −5.2±1.0 mmHg

CCCOc1ccc(S(=O)(=O)N2CCN(CCOC(=O)CCOC[C@@H](CO[N+](=O)[O-])O[N+](=O)[O-])CC2)cc1-c1nc2c(CCC)cn(CC)c2c(=O)[nH]1.O=C(O)CC(O)(CC(=O)O)C(=O)O [Compound (1)-(2S)-citrate salt, (S)-2-(4-(3-(5-ethyl-4-oxo-7-propyl-4,5-dihydro-3H-pyrrolo[3,2-d]pyrimidin-2-yl)-4-propoxyphenylsulfonyl)piperazin-1-yl)ethyl 3-[2,3-bis(nitrooxy)propoxy]propanoate citrate]
IOP change (mmHg) E180 min ([2]; rabbit, in vivo): −1.8 ± 0.8 mmHg
IOP change (mmHg) Emax ([2]; rabbit, in vivo): −3.8 ± 0.5 (60 min) mmHg
IOP change at Emax ([2]; rabbit, in vivo): −3.8 ± 0.5 (60 min)
IOP change (mmHg) 30 min ([1]; in vivo): −4.0 ± 0.9 mmHg
IOP change (mmHg) 60 min ([1]; in vivo): −5.3 ± 1.0 mmHg
IOP change (mmHg) 180 min ([1]; in vivo): −4.9 ± 1.5 mmHg
IOP change (mmHg) 300 min ([1]; in vivo): −4.4 ± 0.9 mmHg
IOP change (mmHg) 1440 min ([1]; in vivo): −2.6 ± 1.3 mmHg
IOP change (mmHg) E300 min ([1]; in vivo): −5.3 ± 1.9 mmHg
IOP change (mmHg) Emax ([1]; in vivo): −7.0 ± 0.9 (60 min) mmHg

COc1ccc(CNc2nc(N3CCC[C@H]3COC(=O)CCCCCO[N+](=O)[O-])ncc2C(=O)NCc2ncccn2)cc1Cl.O=C(O)CC(O)(CC(=O)O)C(=O)O [Compound (9)-citrate salt, (S)-(1-(4-(3-chloro-4-methoxybenzylamino)-5-(pyrimidin-2-ylmethylcarbamoyl)pyrimidin-2-yl)pyrrolidin-2-yl)methyl 6-(nitrooxy)hexanoate 2-hydroxypropane-1,2,3-tricarboxylate]
IOP change (mmHg) E480 ([1]; in vivo): −6.0±2.1 mmHg
IOP change (mmHg) Emax ([1]; in vivo): −6.0±2.1 mmHg

COc1ccc(CNc2nc(N3CCC[C@H]3COC(=O)CCCCCO[N+](=O)[O-])ncc2C(=O)NCc2ncccn2)cc1Cl.O=C(O)/C=C/C(=O)O [Compound (9)-fumarate salt, (S)-(1-(4-(3-chloro-4-methoxybenzylamino)-5-(pyrimidin-2-ylmethylcarbamoyl)pyrimidin-2-yl)pyrrolidin-2-yl)methyl 6-(nitrooxy)hexanoate Fumarate]
IOP change (mmHg) 30 min ([1]; Example 26, Table 5, 2.0% w/v, 30 μL topical, 30 min post-dosing, mean±SEM n=8 eye): −4.0 ± 1.3 mmHg
IOP change (mmHg) 60 min ([1]; Example 26, Table 5, 2.0% w/v, 30 μL topical, 60 min post-dosing, mean±SEM n=8 eye): −3.5 ± 1.6 mmHg
IOP change (mmHg) 300 min ([1]; Example 26, Table 5, 2.0% w/v, 30 μL topical, 300 min post-dosing, mean±SEM n=8 eye): −4.1 ± 2.7 mmHg
IOP change (mmHg) 1440 min ([1]; Example 26, Table 5, 2.0% w/v, 30 μL topical, 1440 min (24 hours) post-dosing, mean±SEM n=8 eye, Fumarate): −2.8±2.0 mmHg
maximum intraocular pressure-lowering efficacy, Emax [1, 3]: −4.1±2.7 mmHg
time of Emax [1, 3]: 300 min

COc1ccc(CNc2nc(N3CCC[C@H]3COC(=O)CCOC[C@@H](CO[N+](=O)[O-])O[N+](=O)[O-])ncc2C(=O)NCc2ncccn2)cc1Cl.O=C(O)CC(O)(CC(=O)O)C(=O)O [Compound (12)-(2S)-citrate salt, ((S)-1-(4-(3-chloro-4-methoxybenzylamino)-5-(pyrimidin-2-ylmethylcarbamoyl)pyrimidin-2-yl)pyrrolidin-2-yl)methyl 3-((S)-2,3-bis(nitrooxy)propoxy)propanoate 2-hydroxypropane-1,2,3-tricarboxylate]
IOP change (mmHg) 30 min ([2]; rabbit, in vivo): −5.6 ± 0.9 mmHg
IOP change (mmHg) 60 min ([2]; rabbit, in vivo): −3.9 ± 1.0 mmHg
IOP change (mmHg) 120 min ([2]; rabbit, in vivo): −2.4 ± 0.8 mmHg

CCCOc1ccc(S(=O)(=O)N2CCN(CCO)CC2)cc1-c1nc2c(CCC)cn(CC)c2c(=O)[nH]1 [Mirodenafil, reference compound]
IOP change (mmHg) E300 min ([2]; Example 24, Table 3, 300 min post-dosing, topical 50 μL, 0.5 μmoles/eye (each compound), mean±SEM n=6-9): −1.46 ± 0.79 mmHg
time post-dosing of Emax ([2]; Example 24, Table 3, topical 50 μL, 0.5 μmoles/eye (each compound)): 120 min
IOP change (mmHg) Emax ([2]; Example 24, Table 3, topical 50 μL, 0.5 μmoles/eye (each compound), change versus basal and vehicle, mean±SEM n=6-9): −3.68 ± 0.89 mmHg
IOP change (mmHg) E300 min ([1]; Example 22, Table 1, 300 min post-dose, topical 30 μL, 0.48 μmoles/eye (1.17 μmoles/eye for (IIIg)-OH), mean±SEM n=13): −3.4 ± 2.3 mmHg
time post-dosing of Emax ([1]; Example 22, Table 1, topical 30 μL, 0.48 μmoles/eye (1.17 μmoles/eye for (IIIg)-OH)): 180 min
IOP change (mmHg) Emax ([1]; Example 22, Table 1, topical 30 μL, 0.48 μmoles/eye (1.17 μmoles/eye for (IIIg)-OH), change versus basal and vehicle, mean±SEM n=13): −5.0 ± 2.1 mmHg
IOP change (mmHg) 30 min ([1]; Example 27, Table 6, 0.31 μmoles/eye (each compound), 30 μL topical, 30 min post-dose, mean±SEM n=13): −2.2 ± 1.4 mmHg
IOP change (mmHg) 60 min ([1]; Example 27, Table 6, 0.31 μmoles/eye (each compound), 30 μL topical, 60 min post-dose, mean±SEM n=13): −4.1 ± 1.5 mmHg
IOP change (mmHg) 180 min ([1]; Example 27, Table 6, 0.31 μmoles/eye (each compound), 30 μL topical, 180 min post-dose, mean±SEM n=13): −3.8 ± 1.0 mmHg
IOP change (mmHg) 300 min ([1]; Example 27, Table 6, 0.31 μmoles/eye (each compound), 30 μL topical, 300 min post-dose, mean±SEM n=13): −2.2 ± 1.1 mmHg
IOP change (mmHg) 1440 min ([1]; Example 27, Table 6, 0.31 μmoles/eye (each compound), 30 μL topical, 1440 min post-dose, mean±SEM n=13): −1.0 ± 1.1 mmHg

CCCOc1ccc(S(=O)(=O)N2CCN(CCO[N+](=O)[O-])CC2)cc1-c1nc2c(CCC)cn(CC)c2c(=O)[nH]1 [PDE5 nitrate ester, 2-(4-(3-(5-ethyl-4-oxo-7-propyl-4,5-dihydro-3H-pyrrolo[3,2-d]pyrimidin-2-yl)-4-propoxyphenylsulfonyl)piperazin-1-yl)ethyl Nitrate, reference compound]
IOP change (mmHg) E180 min ([2]; Example 25, Table 4, 180 min post-dosing, topical, 0.5 μmoles/eye, mean±SEM n=6-9): 0.3 ± 0.8 mmHg
time post dosing of Emax ([2]; Example 25, Table 4, topical, 0.5 μmoles/eye): 60 min
IOP change (mmHg) Emax ([2]; Example 25, Table 4, topical, 0.5 μmoles/eye, change versus basal and vehicle, mean±SEM n=6-9): −2.6 ± 0.5 mmHg
